Measured values reported in paper PMC6272674, “Selected Compounds Structurally Related to Acyclic Sesquiterpenoids and Their Antibacterial and Cytotoxic Activity” (Molecules, 2015).
Converted amounts (≈) assume the structure as drawn.

Legend:
[1] = test system: Mycobacterium smegmatis mc^2 155 ATCC 700084; design: method as in PMID 21042264; conditions: micro-dilution, NCCLS guidelines; cited from earlier work
[2] = test system: Colorectal Adenocarcinoma HT29; assay: MTT viability, HT29; format: cell-based, human; conditions: Homo sapiens, HT-29, 24 h, range 10–1000 µM, read-out: half maximal inhibitory concentration (IC50), interpolated
In short: (§1)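 Read-out: MTT formazan absorbance at 570 nm, expressed as treated/control optical density ratio, mean ± SD of three experiments in five replicates. Cells seeded at 1 × 10^4 cells/100 µL, compound exposure 24 h, 37 °C, 5% CO2.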

[3] = test system: non-small cell lung cancer cells A549; design: method as in PMID 12753732; conditions: cited from earlier work
[4] = test system: Enterococcus faecium ATCC 35667; assay: Micro-dilution broth MIC, Enterococcus faecium; format: cell-based; conditions: ATCC35667, 24 h, 37 °C, read-out: Minimum Inhibitory Concentrations MIC
Description: (§2) The standard strains, Gram-positive: Staphylococcus aureus ATCC […], Enterococcus faecalis Van B ATCC 51299 and Enterococcus faecium VA sensitive ATCC 35667, and Gram-negative: Escherichia coli ATCC 25922, Klebsiella pneumoniae ATCC 700603 and Acinetobacter baumannii ATCC 19606, came from a collection of the Environmental Biology Department, Medical University of Łódź. The standard strains were cultivated in Columbia Agar Medium and incubated at 37 °C for 24 h in aerobic conditions.
(§3) The antibacterial activity of the racemates and E/Z-mixtures was investigated using the micro‑dilution broth method. The compounds were diluted in ethanol. This stock solution was mixed with 100 µL of Mueller-Hinton broth to obtain concentrations from 10 µg/mL to 80 µg/mL. The mixtures were then transferred to 96-well microtiter plates. The microbial suspension was standardised to a cell density of 1.5 × 10^8 CFU, which was equal to an optical density of 0.5 on the Mc Farland scale by a bio-Merieux densitometer; one well was filled with broth only to act as a control for strain growth.

Malignant Melanoma MEWO = assay: MTT viability, MEWO; format: cell-based, human; conditions: Homo sapiens, 24 h, range 10–1000 µM, read-out: half maximal inhibitory concentration (IC50), interpolated
In short: as §1

[5] = test system: Staphylococcus aureus ATCC 43300; assay: Micro-dilution broth MIC, Staphylococcus aureus; format: cell-based; conditions: ATCC43300, 24 h, 37 °C, read-out: Minimum Inhibitory Concentrations MIC
Description: as §2, §3

[6] = test system: Promyelocytic Leukaemia HL-60; assay: MTT viability, HL-60; format: cell-based, human; conditions: Homo sapiens, HL-60, 24 h, HL-60, MTT, range 10–1000 µM, read-out: half maximal inhibitory concentration (IC50), interpolated
In short: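 Viability is given as the optical density ratio of treated to control wells after 24 h compound treatment at 37 °C. Formazan from a 4 h MTT incubation is solubilised with SDS/DMF and measured at 570 nm.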

Keratinocytes HaCaT = assay: MTT viability, HaCaT; format: cell-based, human; conditions: Homo sapiens, 24 h, range 10–1000 µM, read-out: half maximal inhibitory concentration (IC50), interpolated
In short: as §1

[7] = test system: non-small cell lung cancer cells H460; design: method as in PMID 12753732; conditions: cited from earlier work
[8] = test system: Klebsiella pneumoniae ATCC 700603; assay: Micro-dilution broth MIC, Klebsiella pneumoniae; format: cell-based; conditions: ATCC700603, 24 h, 37 °C, read-out: Minimum Inhibitory Concentrations MIC
Description: as §2, §3

[9] = test system: Acinetobacter baumannii ATCC 19606; assay: Micro-dilution broth MIC, Acinetobacter baumannii; format: cell-based; conditions: ATCC19606, 24 h, 37 °C, read-out: Minimum Inhibitory Concentrations MIC
Description: as §2, §3

[10] = test system: Staphylococcus aureus FDA209P; design: method as in PMID 19078849; conditions: 1 × 10^5 CFU, 48 h with shaking, turbidimetric; cited from earlier work
MTT viability, IEC6 = format: cell-based; conditions: rat, IEC-6 small intestine epithelial cells, 1000 µM (IC50 exceeded 1000 µM), read-out: viability ± standard deviation at 1000 µM
In short: as §1

[11] = test system: Escherichia coli ATCC 25922; assay: Micro-dilution broth MIC, Escherichia coli; format: cell-based; conditions: ATCC25922, 24 h, 37 °C, read-out: Minimum Inhibitory Concentrations MIC
Description: as §2, §3

[12] = test system: Enterococcus faecalis ATCC 51299; assay: Micro-dilution broth MIC, Enterococcus faecalis; format: cell-based; conditions: ATCC51299, 24 h, 37 °C, read-out: Minimum Inhibitory Concentrations MIC
Description: as §2, §3

Fibroblasts HFIG = assay: MTT viability, HFIG; format: cell-based, human; conditions: Homo sapiens, Fibroblast, 24 h, range 10–1000 µM, read-out: half maximal inhibitory concentration (IC50), interpolated
In short: as §1

- IC50 [2]: 930 µM
- MIC [4]: 16 µg/mL (≈ 72 µM)
- IC50 (Malignant Melanoma MEWO): 378 µM
- MIC [5]: 26 µg/mL (≈ 117 µM)
- IC50 [6]: 54 µM
- MIC [8]: 16 µg/mL (≈ 72 µM)
- MIC [9]: 18 µg/mL (≈ 80.9 µM)
- MIC [11]: 28 µg/mL (≈ 126 µM)
- MIC [12]: 18 µg/mL (≈ 80.9 µM)
Structure (SMILES): CC(C)=CCC/C(C)=C/CC/C(C)=C/CO [Farnesol (4), farnesol, reference compound]
- MIC [1]: 64 µg/mL (≈ 288 µM)
- IC50 [3]: ~4.5 µM
- IC50 (Keratinocytes HaCaT): 489 µM
- IC50 [7]: ~4.5 µM
- concentration at which active [10]: ≥ 10 µg/mL
- viability at 24 h, 1000 µM (MTT viability, IEC6): 58%
- IC50 (Fibroblasts HFIG): 350 µM
